From ChEMBL document CHEMBL1201862, “PubChem BioAssay data set” (2004)
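How tested: cells in 96-well plates exposed to compound for 48 hours at five concentrations. GI50 marks 50% less growth.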 Active and inactive are the calls of the source. No stated cut-off is given here; in the data, active = GI50 up to about 1.1 µM and inactive = higher.

Tests used:
Assay in all cases: inhibition of tumour cell growth, NCI panel, 48 h
786-0 = tested on: 786-0
NCI-H226 = tested on: NCI-H226
UO-31 = tested on: UO-31
EKVX = tested on: EKVX
HOP-92 = tested on: HOP-92
SR = tested on: SR
MCF7 = tested on: MCF7
A549 = tested on: A549
COLO 205 = tested on: COLO 205
NCI-H522 = tested on: NCI-H522
PC-3 = tested on: PC-3
NCI-H460 = tested on: NCI-H460
MOLT-4 = tested on: MOLT-4
IGROV-1 = tested on: IGROV-1
U-251 = tested on: U-251
HT-29 = tested on: HT-29
OVCAR-4 = tested on: OVCAR-4
LOX IMVI = tested on: LOX IMVI
HCC 2998 = tested on: HCC 2998
OVCAR-3 = tested on: OVCAR-3

Structure (SMILES)	GI50 (786-0)	GI50 (NCI-H226)	GI50 (UO-31)	GI50 (EKVX)	GI50 (HOP-92)	GI50 (SR)	GI50 (MCF7)	GI50 (A549)	GI50 (COLO 205)	GI50 (NCI-H522)	GI50 (PC-3)	GI50 (NCI-H460)	GI50 (MOLT-4)	GI50 (IGROV-1)	GI50 (U-251)	GI50 (HT-29)	GI50 (OVCAR-4)	GI50 (LOX IMVI)	GI50 (HCC 2998)	GI50 (OVCAR-3)
O=C1c2ccccc2-c2nc(-c3cccc([N+](=O)[O-])c3)nnc21	30.5 µM (inactive)	7.91 µM (inactive)	12.3 µM (inactive)	7.38 µM (inactive)	> 100 µM (inactive)	1.11 µM (active)	11.4 µM (inactive)	4.62 µM (inactive)	3.91 µM (inactive)	26.5 µM (inactive)	40.2 µM (inactive)	3.96 µM (inactive)	9.73 µM (inactive)	28.8 µM (inactive)	4.5 µM (inactive)	1.82 µM (inactive)	15.4 µM (inactive)			
CC1CNC(NS(=O)(=O)c2cc(C(=O)Nc3ccccc3)c(Cl)cc2S)=NN1 (stereo unspecified)	92.3 µM (inactive)	44.7 µM (inactive)	77.8 µM (inactive)	> 100 µM (inactive)		41.8 µM (inactive)	36.5 µM (inactive)	33.7 µM (inactive)	48.6 µM (inactive)	23.4 µM (inactive)	29 µM (inactive)	63 µM (inactive)	49.8 µM (inactive)	6.24 µM (inactive)	39.1 µM (inactive)	38.8 µM (inactive)	67.3 µM (inactive)	21 µM (inactive)	46.1 µM (inactive)	41.4 µM (inactive)
CCNc1ccc2c(c1)C(=O)N(OS(C)(=O)=O)C2=O	34.1 µM (inactive)	29 µM (inactive)	62.5 µM (inactive)	62.7 µM (inactive)	> 100 µM (inactive)		33.6 µM (inactive)	> 100 µM (inactive)	42.7 µM (inactive)	16.4 µM (inactive)	> 100 µM (inactive)	> 100 µM (inactive)			> 100 µM (inactive)	> 100 µM (inactive)	42 µM (inactive)	38.3 µM (inactive)	> 100 µM (inactive)	40.7 µM (inactive)
O=[N+]([O-])c1ccc(CSC2=C(c3ccc(Cl)cc3)S/C(=C3\SC(SCc4ccc([N+](=O)[O-])cc4)=C(c4ccc(Cl)cc4)S3)S2)cc1	> 100 µM (inactive)	> 100 µM (inactive)		> 100 µM (inactive)	< 0.01 µM (active)		> 100 µM (inactive)	> 100 µM (inactive)	> 100 µM (inactive)	> 100 µM (inactive)	> 100 µM (inactive)	> 100 µM (inactive)	> 100 µM (inactive)	> 100 µM (inactive)	> 100 µM (inactive)	> 100 µM (inactive)	> 100 µM (inactive)	> 100 µM (inactive)	> 100 µM (inactive)	> 100 µM (inactive)
CC(C)CC1NC(=O)CCC(NC(=O)C(Cc2ccc(O)cc2)NC(=O)OCc2ccccc2)C(=O)NC(Cc2ccccc2)C(=O)NC(Cc2ccccc2)NC1=O (stereo unspecified)	> 100 µM (inactive)	> 100 µM (inactive)	> 100 µM (inactive)	> 100 µM (inactive)	> 100 µM (inactive)	> 100 µM (inactive)	> 100 µM (inactive)	> 100 µM (inactive)	> 100 µM (inactive)		> 100 µM (inactive)	> 100 µM (inactive)	> 100 µM (inactive)	> 100 µM (inactive)	> 100 µM (inactive)	> 100 µM (inactive)	> 100 µM (inactive)	> 100 µM (inactive)	> 100 µM (inactive)	> 100 µM (inactive)
COc1cc(OC)c(-n2[nH]c(=O)n(C)c2=O)c(OC)c1	> 100 µM (inactive)	> 100 µM (inactive)	> 100 µM (inactive)	> 100 µM (inactive)		> 100 µM (inactive)	> 100 µM (inactive)	> 100 µM (inactive)	> 100 µM (inactive)	49.7 µM (inactive)	> 100 µM (inactive)	> 100 µM (inactive)	> 100 µM (inactive)	> 100 µM (inactive)	> 100 µM (inactive)	> 100 µM (inactive)	> 100 µM (inactive)	> 100 µM (inactive)	> 100 µM (inactive)	> 100 µM (inactive)
CC(Cn1c2c(c3cc(O)ccc31)CCc1ccc(O)cc1-2)N(C)C (stereo unspecified)	15.5 µM (inactive)	14.4 µM (inactive)	13.2 µM (inactive)	19.8 µM (inactive)		48.2 µM (inactive)	19.9 µM (inactive)				12.4 µM (inactive)	15.1 µM (inactive)	35.6 µM (inactive)	12.8 µM (inactive)	28.2 µM (inactive)	18.2 µM (inactive)		23.4 µM (inactive)		15.6 µM (inactive)
CNC(=O)NCCN1CC2CCC(CC2)C1	> 10 µM (inactive)	> 10 µM (inactive)	> 10 µM (inactive)	> 10 µM (inactive)		> 10 µM (inactive)	> 10 µM (inactive)	> 10 µM (inactive)	> 10 µM (inactive)	> 10 µM (inactive)	> 10 µM (inactive)	> 10 µM (inactive)	> 10 µM (inactive)	> 10 µM (inactive)	> 10 µM (inactive)	> 10 µM (inactive)	> 10 µM (inactive)	> 10 µM (inactive)	> 10 µM (inactive)	> 10 µM (inactive)
CCCCCCCCCCCCCOCCOCCOCCCCC(O)CCCCCCCCCC1=C[C@H](C)OC1=O (stereo partly specified)	17.6 µM (inactive)	12.8 µM (inactive)	16 µM (inactive)			2.08 µM (inactive)	10.1 µM (inactive)	7.55 µM (inactive)	20.9 µM (inactive)	0.0488 µM (active)	13.8 µM (inactive)	17.5 µM (inactive)	7.59 µM (inactive)	18.1 µM (inactive)	14.1 µM (inactive)	15.6 µM (inactive)	12.3 µM (inactive)	4.31 µM (inactive)	17 µM (inactive)	18.6 µM (inactive)
COC1OC2COC1(OCc1ccccc1)C1OC(C)(C)OC21 (stereo unspecified)	> 100 µM (inactive)	> 100 µM (inactive)	> 100 µM (inactive)	> 100 µM (inactive)		> 100 µM (inactive)	> 100 µM (inactive)	> 100 µM (inactive)	> 100 µM (inactive)	> 100 µM (inactive)	> 100 µM (inactive)	> 100 µM (inactive)	> 100 µM (inactive)	> 100 µM (inactive)	> 100 µM (inactive)	> 100 µM (inactive)	> 100 µM (inactive)		> 100 µM (inactive)	> 100 µM (inactive)
COC(=S)OC1CC(n2cnc3c(=O)[nH]cnc32)OC1CO[Si](C)(C)C(C)(C)C (stereo unspecified)	> 100 µM (inactive)	> 100 µM (inactive)		> 100 µM (inactive)	> 100 µM (inactive)	> 100 µM (inactive)	> 100 µM (inactive)	> 100 µM (inactive)	> 100 µM (inactive)	> 100 µM (inactive)	> 100 µM (inactive)	> 100 µM (inactive)	> 100 µM (inactive)	> 100 µM (inactive)	> 100 µM (inactive)	> 100 µM (inactive)	> 100 µM (inactive)	> 100 µM (inactive)		> 100 µM (inactive)
